Results reported in article PMC7955127, “Preclinical small molecule WEHI-7326 overcomes drug resistance and elicits response in patient-derived xenograft models of human treatment-refractory tumors” (Cell Death & Disease, 2021).

How the values were obtained:
[1] = system: COG-N-496x neuroblastoma PDX; experiment: High-risk neuroblastoma PDX COG-N-496x; format: in vivo, NSG mice; conditions: COG-N-496x PDX; vincristine 0.5 mg/kg i.p. once weekly
Method: (§1) All animal studies were performed in accordance with the guidelines approved by University of New South Wales Animal Care and Ethics Committee (ACEC 17/53B) and in accordance with the requirements of the Australian Code for the Care and Use of Animals for Scientific Purposes. PDX models COG-N-440x and COG-N-496x were obtained from the Childhood Cancer Repository, Texas Tech University Health Sciences Center in Lubbock, TX, USA. 6–8 week old female NSG mice were engrafted by subcutaneous injection with 1 × 10^6 freshly thawed PDX tumor cells into one flank in a mixture of 100 μl RPMI-1640 and 100 μl Matrigel. Mice were monitored for tumor development three times weekly and tumor size measured using digital Vernier calipers. Treatments commenced when tumors reached 50 mm^3, following randomization into treatment arms. […] Mice were treated with either vincristine (0.5 mg/kg, once weekly i.p. in sterile saline for up to 5 weeks), WEHI-7326 (20 mg/kg; twice weekly i.v. in sterile saline for up to 5 weeks) or vehicle (as for WEHI-7326). For the Th-MYCN transgenic mouse model, spontaneous tumor growth in mice homozygous for the MYCN transgene was assessed by abdominal palpation at least twice a week. Treatments commenced once a small palpable tumor (~5 mm) was detected, following randomization to treatment arms. Mice were euthanized upon detection of an abdominal tumor of ~1 cm in diameter. […]

[2] = system: COG-N-440x neuroblastoma PDX; experiment: High-risk neuroblastoma PDX COG-N-440x; format: in vivo, NSG mice; conditions: COG-N-440x PDX; vincristine 0.5 mg/kg i.p. once weekly
Method: as §1

CC[C@]1(O)C[C@H]2CN(CCc3c([nH]c4ccccc34)[C@@](C(=O)OC)(c3cc4c(cc3OC)N(C=O)[C@H]3[C@@](O)(C(=O)OC)[C@H](OC(C)=O)[C@]5(CC)C=CCN6CC[C@]43[C@@H]65)C2)C1 [vincristine, reference compound]
Efficacy [1]: entirely ineffective | Efficacy [2]: entirely ineffective
